Measurements reported in patent US10815283B2, “Peptides for treatment of diabetes” (Follicum AB, priority 2017, dated 2020).
“Also recorded” adds a separate entry of the source. No end group written: not given here.

Key:
mouse pancreatic islets = assay: Insulin secretion from isolated mouse pancreatic islets (Examples 5 and 7); assay type: cell-based; conditions: 60 min
Description: Mouse pancreatic islets were isolated from 8-week old C57BL/6J male mice (Taconic). Mice were sacrificed by an overdose of isoflurane and cervical dislocation. 3 ml of 0.9 U/ml collagenase P was injected into the pancreatic duct to inflate the pancreas. The pancreas was then removed and collagen digested for 19 min at 37° C. The samples were vigorously shaken to disrupt the tissue. The digest was transferred into ice cold Hank's Balanced Salt Solution (HBSS) with Ca^2+ and Mg^2+. The suspension was allowed to sit for 10 min to allow the islet to sink, and the islets were washed in fresh HBSS four times. The islets were then hand-picked and sorted according to size. Islets (n=3 per well in a 96 well plate) were pre-incubated in KRB buffer during 10 min 37° C., pH 7.4, supplemented with 10 mM HEPES, 0.1% bovine serum albumin. After pre-incubation, the buffer was changed and islets were incubated at different test conditions in new KRB buffer with 0.1% bovine serum albumin (non-treated ctrl, FOL-005 peptide, or GLP-1) for 60 min at 37° C. Immediately after incubation, an aliquot of the buffer was removed and frozen for subsequent assay of insulin.
Mouse pancreatic islets were isolated from 8-week old C57BL/6J male mice as described under example 5. The islets were then hand-picked and sorted according to size. Islets (n=5 per well in a 96 well plate) were pre-incubated in 200 μl KRB buffer during 10 min 37° C., pH 7.4, supplemented with 10 mM HEPES, 0.1% bovine serum albumin. Following pre-incubation, the buffer was changed and islets were incubated in different test conditions in new KRB buffer with 0.1% bovine serum albumin (non-treated ctrl, FOL-014 peptide, and GLP-1) for 60 min at 37° C. Immediately after incubation, an aliquot of the buffer was removed and frozen for subsequent assay of insulin.

[1] = Distribution of H3 labelled peptide, whole body sectioning; assay type: in vivo, mouse; conditions: subcutaneous, C57Bl/6 mice, 1 h and 2 h after injection
Description: C57Bl/6 mice were injected subcutaneously with H^3 labelled FOL-005 and euthanized at 1 h (FIG. 12A) or 2 h (FIG. 12B) after injection. Following whole body sectioning the distribution of the labelled peptide was visualised. […] Using Pearl Trilogy Small Animal Imaging System, in vivo bio-distribution and tissue localization of two Cy7.5 labelled peptides, FOL-005 (FIG. 12C) and FOL-014 (FIG. 12D) in NMRI nude mice via subcutaneous injection was investigated. […] The dose of each peptide was 10 nmol per mouse. The mice were imaged before injection, at 5 min, 20 min, 50 min, 60 min, 2 hrs, 4 hrs, 6 hrs, 24 hrs and 48 hrs post administration of labelled peptide.

INS-1 β-cells = assay: Insulin secretion from INS-1 cells, insulin radioimmunoassay (Examples 4 and 6); assay type: cell-based, rat; conditions: peptide 6 μM, 60 min
Description: To investigate the stimulatory effect of FOL-005 on insulin secretion, INS-1 β-cells were used in the following experiments. Cells were seeded overnight in cRPMI and then washed with PBS before pre-incubation for 60 min at 37° C. in Krebs-Ringer bicarbonate buffer (KRB), pH 7.4, supplemented with 10 mM HEPES, 0.1% bovine serum albumin. After pre-incubation, the buffer was changed and the INS-1 cells were incubated at different test conditions (0 mM, 5 mM or 20 mM glucose) and stimulated with peptide FOL-005 or FOL-015 (SEQ ID NO: 158) or left untreated during 60 min at 37° C. Immediately after incubation, an aliquot of the buffer was removed and frozen for subsequent assay of insulin with an insulin radioimmunoassay kit.
INS-1 β-cells were used to investigate the stimulatory effect of FOL-014 on insulin secretion. Cells were seeded overnight and then washed with PBS before pre-incubation for 60 min at 37° C. in Krebs-Ringer bicarbonate buffer (KRB), pH 7.4, supplemented with 10 mM HEPES, 0.1% bovine serum albumin. After pre-incubation, the buffer was changed and the INS-1 cells were incubated in new KRB buffer supplemented with 10 mM HEPES, 0.1% bovine serum albumin and stimulated with peptide FOL-014 or left untreated during 60 min at 37° C. Immediately after incubation, an aliquot of the buffer was removed and frozen for subsequent assay of insulin.

INS-1 cells [2] = assay: Proliferation of INS-1 cells, [methyl-3H] thymidine incorporation; assay type: cell-based, rat
Description: To investigate if FOL-005 and FOL-014 could induce proliferation of β-cells we used INS-1 cells. Rat INS-1 cells were seeded in 96-well plates in RPMI medium with supplement and after 2 hours the medium was changed to RPMI without supplement. During the proliferation experiment the cells were incubated at different test conditions (FOL-005, FOL-014, coated or in solution, 48 h incubation) and during the last 20 hours of culture period the cells were pulsed with 1μ Ci/well of [methyl-3H] thymidine. The cells were then harvested onto glass fiber filters using a FilterMate harvester. The filters were air dried, and the bound radioactivity was measured using a liquid scintillation counter. To study whether FOL-005 influenced β-cell proliferation, INS-1 cells were treated with increasing amounts of soluble FOL-005 (0.06-6 μM) during 48 hours and proliferation was measured with radiolabeled thymidine incorporation into newly synthesized DNA.

[3] = In vivo bio-distribution of Cy7.5 labelled peptides, Pearl Trilogy Small Animal Imaging System; parameters: species or system mouse; conditions: Cy7.5 labelled peptide
INS-1 cells [4] = assay: Glucotoxicity-induced apoptosis in INS-1 cells (Annexin V staining, caspase-3 activity); assay type: cell-based, rat; conditions: 20 mM glucose, 48 h, vs 20 mM glucose alone
Description: Since glucotoxicity in pancreatic β-cells is a well-established process in type 2 diabetes we next investigated the protective effects of FOL-005 on β-cells during glucotoxic conditions. First we confirmed that 20 mM glucose induced cell apoptosis in INS cells after 48 h of exposure. High glucose (20 mM) containing RPMI medium induced more Annexin V positive cells and more caspase-3 activity in INS cells compared to cells incubated with medium containing 5 mM glucose (FIG. 2A-B). […] The rate of apoptosis in INS-1 cells was measured with either Caspase-3 Assay Kit or stained with Annexin V Apoptosis Detection Kit with 7-AAD. Caspase-3 activity was measured with fluorescence at an excitation wavelength of 380 nm and an emission wavelength of 440 nm. Caspase-3 activity was then normalized to protein concentration in each well. Measurements of Annexin V stained cells were performed using a CyAn ADP flow cytometer and analyzed with Summit V4.3 software.

isolated mouse islets = assay: Insulin and glucagon secretion from isolated mouse islets at low and high glucose (Example 12); assay type: cell-based; conditions: 100 nM GLP-1, 1 h
Description: Twelve-week-old male C57/bl6 mice were euthanized with isoflurane and cervical dislocation. After clamping the hepatic ducts, 3 ml of 0.9 U/ml collagenase P was injected into the bile duct to inflate the pancreas. The pancreas was then removed and digested for 19 min at 37° C. The samples were vigorously shaken to disrupt the tissue. The digest was quickly transferred into ice cold Hank's Balanced Salts Solution with Ca^2+ and Mg^2+. The suspension was allowed to sit for 8 min to allow the islet to sink, and the islets were washed in the same manner four times. The islets were then handpicked and sorted according to size.
Freshly isolated islets were seeded in groups of 5 in a 96-well plate and preincubated for 1 h at 37° C. in a Krebs-Ringer bicarbonate buffer (pH 7.4). The islets were incubated for 1 h at 37° C. in Krebs-Ringer buffered solution supplemented with 0.6 or 6 μM FOL-014 or 100 nM GLP-1 or left unsupplemented for control. Immediately after incubation, the medium was removed for assays of insulin and glucagon using Mercodia's ELISA kits. The effect of FOL-014 on insulin (FIGS. 8A and B) and glucagon (FIGS. 8C and D) secretion from isolated mouse islets was measured in the presence of low glucose (2.8 mM; FIGS. 8A and C) or high glucose (16.7 mM; FIGS. 8B and D) concentrations.

Row | Substance | insulin secretion (mouse pancreatic islets; Example 5, 3 islets per well, peptide 6 μM) | tissue distribution of radioactivity [1] | insulin secretion (INS-1 β-cells; 5 mM glucose) | insulin secretion (INS-1 β-cells; 20 mM glucose) | insulin secretion (INS-1 β-cells; conditions without glucose) | INS-1 cell proliferation (radiolabeled thymidine incorporation) (INS-1 cells [2]; soluble peptide 0.06-6 μM, 48 hours) | INS-1 cell proliferation (radiolabeled thymidine incorporation) (INS-1 cells [2]; wells coated with peptide and blocked with BSA, vs control coated wells) | bio-distribution and tissue localization ([3]; i.v. administration (not shown)) | bio-distribution and tissue localization ([3]; subcutaneous, 10 nmol per mouse, NMRI nude mice, 5 min to 48 hrs) | cell apoptosis, Annexin V staining (INS-1 cells [4]) | cell apoptosis, caspase-3 activity (INS-1 cells [4]) | insulin secretion (mouse pancreatic islets; Example 5, 3 islets per well, GLP-1 100 nM) | insulin secretion (mouse pancreatic islets; Example 7, 5 islets per well, GLP-1 100 nM) | glucagon secretion (isolated mouse islets; high glucose (16.7 mM)) | insulin secretion (isolated mouse islets; high glucose (16.7 mM)) | glucagon secretion (isolated mouse islets; low glucose (2.8 mM)) | insulin secretion (isolated mouse islets; low glucose (2.8 mM))
1 | VDTYDGDISVVYGLR ((1)..(15) peptide, FOL-005) | secreted more insulin compared to unstimulated control islets | Strong binding was evident in pancreas and at the site of injection; also recorded: also visible in liver, kidney, salivary glands | responded with insulin secretion | responded with more insulin secretion compared to FOL-005 stimulated cells incubated with 5 mM glucose | secreted more insulin compared to unstimulated control cells | stimulated INS-1 cell proliferation | stimulated proliferation compared to control (ctrl) coated wells | same distribution pattern | High accumulation of the peptide was evident in the pancreatic tissue area | decreased cell apoptosis | decreased cell apoptosis | – | – | – | – | – | –
2 | glucagon-like peptide-1 (HAEGTFTSDVSSYLEGQAAKEFIAWLVKGR; ends and bridges not checked; UniProt P01275 98-127, looked up) [GLP-1, metabolic hormone that stimulates insulin secretion; native GLP-1 used as comparator] | – | – | – | – | – | – | – | – | – | – | – | secreted more insulin compared to unstimulated control islets | did not affect insulin secretion | efficiently reduced glucagon secretion | significantly increased insulin secretion | failed to inhibit glucagon secretion in low glucose conditions | enhanced insulin secretion also in low glucose samples
